Measured values from patent US9453062B2, “Glucose dependent insulinotropic polypeptide analogs, pharmaceutical compositions and use thereof” (Beijing Hanmi Pharmaceutical Co., Ltd., priority 2011, dated 2016).
*1 amine or outer side, *2 acyl side, *3 side chain or, on linkers, in order; H or OH if unused. Where a SMILES comes first, the peptide text is derived from it. Side-chain parts run from the residue outwards. [ ]: non-standard residue; d: D form. The star is where a group is joined. γGlu = O=C(O)[C@H](CCC(=O)[*:2])N[*:1]; Palmitoyl = CCCCCCCCCCCCCCCC(=O)*; Aib = CC(C)(N)C(=O)O

Tests used:
[1] = target: T1, hGLP-1R (Homo sapiens, UniProt P43220); experiment: hGLP-1R-mediated cAMP induction assay in CHO cell line; format: cell-based; details: Table 3; for EC50: CHO hGLP1R cells; for GLP-1 Receptor Relative Potency: against native GLP-1;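 as to all read-outs here: CHO cells expressing human GLP-1R, treated 30 min at 37 °C, intracellular cAMP measured by competitive fluorescent immunoassay and converted via a cAMP standard curve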
T1 construct: expressed in transfected cells; host or cells: CHO
T1 sequence (P43220 24-463): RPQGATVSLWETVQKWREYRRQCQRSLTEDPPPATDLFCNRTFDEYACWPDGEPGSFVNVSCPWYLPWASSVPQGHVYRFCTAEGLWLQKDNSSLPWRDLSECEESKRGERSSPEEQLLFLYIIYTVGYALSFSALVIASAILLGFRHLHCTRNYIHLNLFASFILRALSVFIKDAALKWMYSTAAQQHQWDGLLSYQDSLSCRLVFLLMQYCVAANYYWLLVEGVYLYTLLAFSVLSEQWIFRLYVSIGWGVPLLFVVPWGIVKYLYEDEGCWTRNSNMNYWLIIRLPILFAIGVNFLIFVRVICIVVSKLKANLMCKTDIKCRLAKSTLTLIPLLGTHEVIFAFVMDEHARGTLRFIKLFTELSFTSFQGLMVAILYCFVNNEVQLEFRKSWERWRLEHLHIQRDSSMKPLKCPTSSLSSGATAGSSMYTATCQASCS
Source text: The cAMP in the sample or standard competes with horseradish peroxidase (HRP)-labeled cAMP conjugate for binding sites on the anti-cAMP antibodies. In the absence of cAMP, most of the HRP-cAMP conjugate is bound to the antibody. Increasing concentrations of cAMP competitively decrease the amount of bound conjugate, thus decreasing measured HRP activity.
Assay kit: CatchPoint™ Cyclic-AMP Fluorescent Assay Kit (Molecular Devices, Product # R8088)
Cell lines: CHO hGLP1R, CHO hGIPR
Cell seeding: CHO hGLP1R or CHO hGIPR cells: 10,000 cells/well/100 uL at 37° C. 5% CO2 overnight.
Gently aspirate off media and wash the cells with KRBG Buffer, 100 uL/well.
Incubate the plate for 10 min at room temperature. Then add the KRBG buffer with 3× final concentration of the tested samples (5-foled series diluted from 5,000 nM), 50 uL/well. Incubate the plate at 37° C. 5% CO2 for 30 min.
Add 50 uL of Lysis buffer to each well and put the plate on a shaker for 10 min.
Place 40 uL of samples and analyze in appropriate wells. And test the cAMP concentration in each sample by following the manufacture's instruction.
Detect the fluorescence signal at Ex: 490 nm and Em: 530 nm. Transfer the FI signal to cAMP concentration by the cAMP standard curve. The Dose-response curve and EC50 were obtained by logistic fitting of Origin 8.

[2] = target: T2, hGIPR (Homo sapiens, UniProt P48546); experiment: hGIPR-mediated cAMP induction assay in CHO cell line; format: cell-based; details: Table 3; for EC50: CHO hGIPR cells; for GIP Receptor Relative Potency: against native GIP
T2 construct: expressed in transfected cells; host or cells: CHO
T2 sequence (P48546 22-466): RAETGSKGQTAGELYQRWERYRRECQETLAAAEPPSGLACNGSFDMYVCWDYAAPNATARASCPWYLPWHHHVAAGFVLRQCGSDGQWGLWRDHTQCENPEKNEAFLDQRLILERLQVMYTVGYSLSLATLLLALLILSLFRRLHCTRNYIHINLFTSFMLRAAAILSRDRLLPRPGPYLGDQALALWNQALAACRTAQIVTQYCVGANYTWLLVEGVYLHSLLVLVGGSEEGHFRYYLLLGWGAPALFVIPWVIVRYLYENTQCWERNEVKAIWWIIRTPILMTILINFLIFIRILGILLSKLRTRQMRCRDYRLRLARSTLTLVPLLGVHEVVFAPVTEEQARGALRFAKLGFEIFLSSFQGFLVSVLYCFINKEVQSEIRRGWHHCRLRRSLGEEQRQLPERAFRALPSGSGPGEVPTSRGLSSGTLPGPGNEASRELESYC

SMILES | EC50 [1] | GLP-1 Receptor Relative Potency [1] | EC50 [2] | GIP Receptor Relative Potency [2]
CCCCCCCCCCCCCCCC(=O)N[C@@H](CCC(=O)NCCCC[C@H](NC(=O)[C@@H](NC(=O)[C@H](C)NC(=O)[C@H](CCC(=O)O)NC(=O)[C@H](CCCCN)NC(=O)[C@H](CCC(=O)O)NC(=O)[C@H](CCSC)NC(=O)[C@H](Cc1ccc(O)cc1)NC(=O)[C@@H](NC(=O)[C@H](CO)NC(=O)[C@H](Cc1ccc(O)cc1)NC(=O)[C@H](CC(=O)O)NC(=O)[C@H](CO)NC(=O)[C@@H](NC(=O)[C@H](Cc1ccccc1)NC(=O)[C@@H](NC(=O)CNC(=O)[C@H](CCC(=O)O)NC(=O)C(C)(C)NC(=O)[C@@H](N)Cc1ccc(O)cc1)[C@@H](C)O)[C@@H](C)O)[C@@H](C)CC)C(C)C)C(=O)N[C@@H](CCC(=O)O)C(=O)N[C@@H](Cc1ccccc1)C(=O)N[C@H](C(=O)N[C@@H](C)C(=O)N[C@@H](Cc1c[nH]c2ccccc12)C(=O)N[C@@H](CC(C)C)C(=O)N[C@H](C(=O)N[C@@H](CCCCN)C(=O)NCC(=O)NCC(=O)N1CCC[C@H]1C(=O)N[C@@H](CO)C(=O)N[C@@H](CO)C(=O)NCC(=O)N[C@@H](C)C(=O)N1CCC[C@H]1C(=O)N1CCC[C@H]1C(=O)N1CCC[C@H]1C(=O)N[C@@H](CO)C(N)=O)C(C)C)[C@@H](C)CC)C(=O)O [Compound 092] (H-Y[Aib]EGTFTSDYSIYMEKEAVK([γGlu-Palmitoyl])EFIAWLVKGGPSSGAPPPS-NH2) | 0.39 nM | 256.4 | 0.15 nM | 26.6
CC[C@H](C)[C@H](NC(=O)[C@H](CO)NC(=O)[C@H](Cc1ccc(O)cc1)NC(=O)[C@H](CC(=O)O)NC(=O)[C@H](CO)NC(=O)[C@@H](NC(=O)[C@H](Cc1ccccc1)NC(=O)[C@@H](NC(=O)CNC(=O)[C@H](CCC(=O)O)NC(=O)C(C)(C)NC(=O)[C@@H](N)Cc1ccc(O)cc1)[C@@H](C)O)[C@@H](C)O)C(=O)N[C@@H](Cc1ccc(O)cc1)C(=O)N[C@@H](CCSC)C(=O)N[C@@H](CCC(=O)O)C(=O)N[C@@H](CCCCN)C(=O)N[C@@H](CCC(=O)O)C(=O)N[C@@H](C)C(=O)N[C@H](C(=O)N[C@@H](CCCNC(=N)N)C(=O)N[C@@H](CCC(=O)O)C(=O)N[C@@H](Cc1ccccc1)C(=O)N[C@H](C(=O)N[C@@H](CS)C(=O)N[C@@H](Cc1c[nH]c2ccccc12)C(=O)N[C@@H](CC(C)C)C(=O)N[C@H](C(=O)N[C@@H](CCCCN)C(=O)NCC(=O)NCC(=O)N1CCC[C@H]1C(=O)N[C@@H](CO)C(=O)N[C@@H](CO)C(=O)NCC(=O)N[C@@H](C)C(=O)N1CCC[C@H]1C(=O)N1CCC[C@H]1C(=O)N1CCC[C@H]1C(=O)N[C@@H](CO)C(=O)N[C@@H](CCCCN)C(N)=O)C(C)C)[C@@H](C)CC)C(C)C [Compound 105] (H-Y[Aib]EGTFTSDYSIYMEKEAVREFICWLVKGGPSSGAPPPSK-NH2; N-terminus assumed) | 3.94 nM |  | 0.4 nM | 
CC[C@H](C)[C@H](NC(=O)[C@H](Cc1ccccc1)NC(=O)[C@H](CCC(=O)O)NC(=O)[C@H](CCCNC(=N)N)NC(=O)[C@@H](NC(=O)[C@H](C)NC(=O)[C@H](CCC(=O)O)NC(=O)[C@H](CCCCN)NC(=O)[C@H](CCC(=O)O)NC(=O)[C@H](CCSC)NC(=O)[C@H](Cc1ccc(O)cc1)NC(=O)[C@@H](NC(=O)[C@H](CO)NC(=O)[C@H](Cc1ccc(O)cc1)NC(=O)[C@H](CC(=O)O)NC(=O)[C@H](CO)NC(=O)[C@@H](NC(=O)[C@H](Cc1ccccc1)NC(=O)[C@@H](NC(=O)CNC(=O)[C@H](CCC(=O)O)NC(=O)C(C)(C)NC(=O)[C@@H](N)Cc1ccc(O)cc1)[C@@H](C)O)[C@@H](C)O)[C@@H](C)CC)C(C)C)C(=O)N[C@@H](C)C(=O)N[C@@H](Cc1c[nH]c2ccccc12)C(=O)N[C@@H](CC(C)C)C(=O)N[C@H](C(=O)N[C@@H](CCCCN)C(=O)NCC(=O)N[C@@H](CCCNC(=N)N)C(=O)N[C@@H](CCCNC(=N)N)C(=O)N[C@@H](CCCNC(=N)N)C(=O)N[C@@H](CCCNC(=N)N)C(=O)N[C@@H](CCCNC(=N)N)C(=O)N[C@@H](CCCNC(=N)N)C(N)=O)C(C)C [Compound 075] (H-Y[Aib]EGTFTSDYSIYMEKEAVREFIAWLVKGRRRRRR-NH2; N-terminus assumed) |  | 77.7 |  | 8.3
